Test results reported in patent publication US7998938B2, “Cancer treatment by combined inhibition of proteasome and telomerase activities” (Geron Corporation, priority 2005, dated 2011).
Strand notation (5' to 3'): a small letter for the sugar, then the base; units joined by * are phosphorothioate-linked, units joined directly phosphodiester-linked; [ ] holds rarer units or linkages, { } end groups; capitals alone tell only the bases. [NPS] = N3'→P5' thiophosphoramidate internucleoside linkage; [NP] = N3'→P5' phosphoramidate internucleoside linkage; d = 2'-deoxy (DNA)

test system: telomerase; experiment: Inhibition of telomerase, biochemical (FlashPlate) assay; parameters: species or system human; details: NPS linkages unless NP backbone stated

“11-mer; truncation of GRN163 sequence: NPS oligonucleotide TAGGGTTAGAC (SEQ ID NO: 15) (DNA, all [NPS], methylation of C not given here)” and “12-mer; truncation of GRN163 sequence: NPS oligonucleotide TAGGGTTAGACA (SEQ ID NO: 14) (DNA, all [NPS], methylation of C not given here)” are within error of each other in IC50: 0.85 ± 0.35 nM for the first, 0.36 ± 0.2 nM for the second.

Going from “Alternative targeting 11-mer: NPS oligonucleotide GTTAGGGTTAG (SEQ ID NO: 16) (DNA dG[NPS]dT[NPS]dT[NPS]dA[NPS]dG[NPS]dG[NPS]dG[NPS]dT[NPS]dT[NPS]dA[NPS]dG)” to “Alternative targeting 13-mer: NPS oligonucleotide CAGTTAGGGTTAG (SEQ ID NO: 13), complementary to nucleotides 46-58 of SEQ ID NO: 1 (DNA, all [NPS], methylation of C not given here)”, the IC50 falls from 0.51 ± 0.13 nM to 0.049 ± 0.007 nM (10-fold).

Compared with “Complement of GRN163 sequence: NPS oligonucleotide TTGTCTAACCCTA (SEQ ID NO: 24) (DNA, all [NPS], methylation of C not given here)”, “Duplex of GRN163 sequence: Duplex TAGGGTTAGACAA / ATCCCAATCTGTT (chemistry not fully specified; one strand is listed 3' to 5')” is 110-fold lower in IC50: 1000 ± 46 nM for the first, 8.9 ± 3 nM for the second.

Compared with “Mismatch of GRN163 sequence with NP backbone: TAGGTGTAAGCAA with NP backbone (DNA, all [NP], methylation of C not given here)”, “Mismatch of GRN163 sequence: NPS oligonucleotide TAGGTGTAAGCAA (SEQ ID NO: 23) (DNA, all [NPS], methylation of C not given here)” is lower in IC50: > 1000 nM for the first, 80 ± 31 nM for the second. The second is the more potent here.

First: Mismatch of alternative targeting 11-mer: NPS oligonucleotide GTTGAGTGTAG (SEQ ID NO: 25) (DNA dG[NPS]dT[NPS]dT[NPS]dG[NPS]dA[NPS]dG[NPS]dT[NPS]dG[NPS]dT[NPS]dA[NPS]dG)
Second: Oligo-T 10-mer: Oligonucleotide TTTTTTTTTT (SEQ ID NO: 27)
The IC50 of the first is lower: 177 ± 93 nM for the first, > 1000 nM for the second.

“Telomere repeat unit: Oligonucleotide TTAGGG (SEQ ID NO: 26)” was tested, and the IC50 was > 1000 nM.

test system: CAG MM cell line; experiment: not given; type: in vivo, NOD/SCID mice; details: Group 4, intravenous 0.25 mg/kg; p<0.01
Procedure: The CAG MM cell line (telomere length 2.7 Kb) was transfected with a retroviral vector encoding a triple fusion gene for HSV-TK, firefly luciferase and green fluorescence protein, and whole animal bioluminescence imaging was undertaken in a disseminated NOD/SCID model with extensive spinal cord and bone marrow tumor infiltration. NOD/SCID mice were not irradiated with gamma ray before cell implantation. […] Bortezomib was administered intravenously at a dose of 0.25 mg/kg (Table 1).
The results are discussed in Section IVA above, with reference to FIGS. 4A-B.

In the case of CC(C)C[C@H](NC(=O)[C@H](Cc1ccccc1)NC(=O)c1cnccn1)B(O)O [bortezomib], the “survival relative to PBS controls” value is reported as “significant increase”.
